What was measured:
Format in all cases: cell-based
AP-1 = experiment: Action on AP-1 activation by ultraviolet ray (UVA) in human dermal fibroblasts, activated AP-1 in nucleoprotein (gel shift or ELISA assay); details: 50 μM, 18 h incubation, UVA 20 J/cm^2
Protocol: (§1) The fibroblasts were irradiated with ultraviolet rays (UVA: 20 J/cm^2) using Dermaray M-DMR-80 (manufactured by Toshiba Iryoyohin). After 4 to 5 hours, the fibroblasts were recovered and the nucleoprotein was extracted therefrom by a conventional method. The resulting nucleoprotein was subjected to a gel shift assay or an ELISA assay (TransAM Kit, ACTIVE MOTIF) to detect activated AP-1. When applying the gel shift assay, the radioactive value of the AP-1 band was measured using a bio-imaging analyzer BAS 2000 (manufactured by Fuji Photo Film).
The suppression rate of the test compound for AP-1 activation was calculated from the following formula. Suppression Rate for AP-1 Activation (%)={1−(A1−A3)/(A2−A3)}×100 A1: radioactive value of AP-1 band when a test compound was added A2: radioactive value of AP-1 band when no test compound was added A3: radioactive value of AP-1 band when no test compound was added and no irradiation with ultraviolet rays

AP-1 (c-Jun) = experiment: AP-1 activation by ultraviolet ray in human dermal fibroblasts, ELISA assay (TransAM Kit), quantity of c-Jun; details: 18 h incubation, UVA 20 J/cm^2, ELISA
Protocol: as §1
(§2) An ELISA assay was performed in accordance with the manual of the kit used, and the activation of AP-1 was obtained by determination of the quantity of c-Jun or c-Fos.
(§3) The suppression rate of AP-1 (c-Jun or c-Fos) activation of a test compound was calculated from the following formula. Suppression Rate for AP-1 Activation (%)={1−{B1−B3)/(B2−B3)}×100 B1: 450 nm absorbance when a test compound was added (per nucleoprotein) B2: 450 nm absorbance when no test compound was added (per nucleoprotein) B3: 450 nm absorbance when no test compound was added and no ultraviolet ray was irradiated (per nucleoprotein)

AP-1 (c-Fos) = experiment: AP-1 activation by ultraviolet ray in human dermal fibroblasts, ELISA assay (TransAM Kit), quantity of c-Fos; details: 18 h incubation, UVA 20 J/cm^2, ELISA
Protocol: as §1, §2, §3

Compound	Suppressing Rate (%) for AP-1 activation (AP-1)	Suppressing Rate (%) (c-Jun) (AP-1 (c-Jun); 10 μM)	Suppressing Rate (%) (c-Jun) (AP-1 (c-Jun); 100 μM)	Suppressing Rate (%) (c-FOS) (AP-1 (c-Fos); 10 μM)	Suppressing Rate (%) (c-FOS) (AP-1 (c-Fos); 100 μM)
Zinc Laurate	9.1%	–	–	–	–
NCC(=O)[O-].NCC(=O)[O-].[Zn+2] [Zinc Salt of Glycine]	−72.8%	–	–	–	–
O=C1CCC(C(=O)[O-])N1.O=C1CCC(C(=O)[O-])N1.[Zn+2] (racemic) [Zinc DL-Pyrrolidonecarboxylate]	38.8%	–	–	–	–
O=C1CC[C@@H](C(=O)[O-])N1.O=C1CC[C@@H](C(=O)[O-])N1.[Zn+2] [Zinc L-Pyrrolidonecarboxylate]	–	109.5%	106.7%	69.3%	77.0%
